What was measured:
Assay type in all cases: in vivo
[1] = system: Echinochloa oryzacola Vasing.; assay: Test Example 2: herbicidal activity, application during weed generation in submerged conditions (symbol A); conditions: Table 23; application herbicide amount 320 g/ha; grade 0-5 by criteria of Test Example 1
Summary of the method: (§1)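 Flooded-soil post-emergence test: emulsion of compound, water-diluted to target rate, applied to paddy water surface at 1–2 leaf stage of mixed-sown weeds (alluvial soil, 4 cm water, 25–30° C. greenhouse); visual rating 3 weeks after application.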

[2] = system: Amaranthus retroflexus; assay: Test Example 5: herbicidal effect by foliage application, plastic box (symbol N); conditions: 320 g/ha, 3 weeks after application
Summary of the method: (§2)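 After sowing into sterilized diluvial soil and growing two weeks under glass at 25° C. to 30° C., seedlings receive a uniform foliar spray of diluted emulsion. Damage is judged visually three weeks on.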

[3] = system: Scirpus juncoides; assay: Test Example 2: herbicidal activity, application during weed generation in submerged conditions (symbol B); conditions: Table 23; application herbicide amount 320 g/ha; grade 0-5 by criteria of Test Example 1
Summary of the method: as §1

[4] = system: Echinochloa crus-galli var. crus-galli; assay: Test Example 5: herbicidal effect by foliage application, plastic box (symbol H); conditions: 320 g/ha, 3 weeks after application
Summary of the method: as §2

[5] = system: Alopecurus myosuroides; assay: Test Example 5: herbicidal effect by foliage application, plastic box (symbol J); conditions: 320 g/ha, 3 weeks after application
Summary of the method: as §2

[6] = system: Echinochloa oryzacola Vasing.; assay: Test Example 1: herbicidal activity, application before weed generation in submerged conditions (symbol A); conditions: application herbicide amount 320 g/ha
Summary of the method: (§3)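 0–5 visual score, 3 wk post-application. Submerged pots, alluvial soil, water 4 cm; seeds sown mixed, rice at 2.5 leaves transplanted. Emulsion diluted to predetermined dose, applied to water surface at sowing. 25–30 °C greenhouse.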

[7] = system: Apera spica-venti; assay: Test Example 4: herbicidal effect by soil treatment (symbol L); conditions: application herbicide amount 320 g/ha
Summary of the method: (§4)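 Seeds were sown in sterilized diluvial soil, covered with about 1.5 cm of soil, and the soil surface was sprayed with a water-diluted emulsion of the compound at a predetermined rate. Plants grew in a greenhouse at 25° C. to 30° C.; effects were scored visually 3 weeks after application.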

[8] = system: Cyperus difformis; assay: Test Example 3: herbicidal effect by foliage application, Wagner pot (symbol E); conditions: application herbicide amount 320 g/ha, Table 24
Summary of the method: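 Rating at 3 weeks post-spray, by defined criteria. Treatment: emulsion diluted with water to a predetermined amount, applied evenly to foliage of 14-day-old plants raised in alluvial soil flooded 0.1–0.5 cm deep at 25–30 °C, rice co-sown.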

[9] = system: Setaria viridis; assay: Test Example 4: herbicidal effect by soil treatment (symbol G); conditions: application herbicide amount 320 g/ha
Summary of the method: as §4

[10] = system: transplanted rice plant; assay: Test Example 1: effect on crop, application before weed generation in submerged conditions (symbol a); conditions: application herbicide amount 320 g/ha
Summary of the method: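 Alluvial soil pots flooded to 4 cm water, sown with Echinochloa oryzacola, Scirpus juncoides and Monochoria vaginalis, then transplanted with 2.5 leaf stage rice seedlings; pre-emergence application. Greenhouse 25° C. to 30° C.; scored 0–5 by herbicidal ratio 3 weeks after application.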

[11] = system: Amaranthus retroflexus; assay: Test Example 4: herbicidal effect by soil treatment (symbol N); conditions: application herbicide amount 320 g/ha
Summary of the method: as §4

[12] = system: Scirpus juncoides; assay: Test Example 1: herbicidal activity, application before weed generation in submerged conditions (symbol B); conditions: application herbicide amount 320 g/ha
Summary of the method: as §3

[13] = system: wheat; assay: Test Example 4: effect on crop by soil treatment (symbol e); conditions: application herbicide amount 320 g/ha
Summary of the method: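 Seeds were sown in spots on sterilized diluvial soil in a plastic box and covered with about 1.5 cm of soil. Plants were then grown in a greenhouse at 25° C. to 30° C.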

| SMILES | Herbicidal effect grade, A: Echinochloa oryzacola Vasing. [1] | N: Amaranthus retroflexus, herbicidal effect grade [2] | Herbicidal effect grade, B: Scirpus juncoides [3] | H: Echinochloa crus-galli var. crus-galli, herbicidal effect grade [4] | J: Alopecurus myosuroides, herbicidal effect grade [5] | A (Echinochloa oryzacola Vasing.) herbicidal effect grade [6] | Herbicidal effect grade, L: Apera spica-venti [7] | E herbicidal effect grade [8] | Herbicidal effect grade, G: Setaria viridis [9] | a (transplanted rice plant) effect on crop grade [10] | Herbicidal effect grade, N: Amaranthus retroflexus [11] | B (Scirpus juncoides) herbicidal effect grade [12] | Effect on crop grade, e: wheat [13] |
| --- | --- | --- | --- | --- | --- | --- | --- | --- | --- | --- | --- | --- | --- |
| CC#Cc1cc(C)c(C2=C(O)CC(CC(=NOC)C3CC3)C2=O)c(C)c1 (stereo not drawn) [9-008] | 5 (Herbicidal ratio of 90% or more (almost completely withered)) | 0 (Herbicidal ratio of 5% or lower (almost no effect)) | 4 (Herbicidal ratio of 70% or higher and lower than 90%) | 5 (Herbicidal ratio of 90% or more (almost completely withered)) | 5 (Herbicidal ratio of 90% or more (almost completely withered)) | 5 (Herbicidal ratio of 90% or more (almost completely withered)) | 5 (Herbicidal ratio of 90% or more (almost completely withered)) | 5 (Herbicidal ratio of 90% or more (almost completely withered)) | 5 (Herbicidal ratio of 90% or more (almost completely withered)) | 5 (Herbicidal ratio of 90% or more (almost completely withered)) | 4 (Herbicidal ratio of 70% or higher and lower than 90%) | 5 (Herbicidal ratio of 90% or more (almost completely withered)) | 5 (Herbicidal ratio of 90% or more (almost completely withered)) |
| Cc1cc(Br)cc(C)c1C1=C(O)CC(CC(=NOCC(F)(F)F)C2CC2)C1=O (stereo not drawn) [9-009] | 2 (Herbicidal ratio of 20% or higher and lower than 40%) | 0 (Herbicidal ratio of 5% or lower (almost no effect)) | 0 (Herbicidal ratio of 5% or lower (almost no effect)) | 5 (Herbicidal ratio of 90% or more (almost completely withered)) | 4 (Herbicidal ratio of 70% or higher and lower than 90%) | 4 (Herbicidal ratio of 70% or higher and lower than 90%) | 1 (Herbicidal ratio of 5% or higher and lower than 20%) | 4 (Herbicidal ratio of 70% or higher and lower than 90%) | 1 (Herbicidal ratio of 5% or higher and lower than 20%) | 5 (Herbicidal ratio of 90% or more (almost completely withered)) | 0 (Herbicidal ratio of 5% or lower (almost no effect)) | 0 (Herbicidal ratio of 5% or lower (almost no effect)) | 0 (Herbicidal ratio of 5% or lower (almost no effect)) |
| CC(CC1CC(O)=C(c2c(C)cc(-n3cc(Cl)cn3)cc2C)C1=O)=NOCC(F)(F)F (stereo not drawn) [9-010] | 4 (Herbicidal ratio of 70% or higher and lower than 90%) | 3 (Herbicidal ratio of 40% or higher and lower than 70%) | 4 (Herbicidal ratio of 70% or higher and lower than 90%) | 5 (Herbicidal ratio of 90% or more (almost completely withered)) | 5 (Herbicidal ratio of 90% or more (almost completely withered)) | 5 (Herbicidal ratio of 90% or more (almost completely withered)) | 5 (Herbicidal ratio of 90% or more (almost completely withered)) | 5 (Herbicidal ratio of 90% or more (almost completely withered)) | 5 (Herbicidal ratio of 90% or more (almost completely withered)) | 5 (Herbicidal ratio of 90% or more (almost completely withered)) | 0 (Herbicidal ratio of 5% or lower (almost no effect)) | 5 (Herbicidal ratio of 90% or more (almost completely withered)) | 0 (Herbicidal ratio of 5% or lower (almost no effect)) |
| CC#Cc1cc(C)c(C2=C(O)CC(CC(C)=NOCC(F)(F)F)C2=O)c(C)c1 (stereo not drawn) [9-011] | 5 (Herbicidal ratio of 90% or more (almost completely withered)) | 2 (Herbicidal ratio of 20% or higher and lower than 40%) | 5 (Herbicidal ratio of 90% or more (almost completely withered)) | 5 (Herbicidal ratio of 90% or more (almost completely withered)) | 5 (Herbicidal ratio of 90% or more (almost completely withered)) | 5 (Herbicidal ratio of 90% or more (almost completely withered)) | 5 (Herbicidal ratio of 90% or more (almost completely withered)) | 5 (Herbicidal ratio of 90% or more (almost completely withered)) | 5 (Herbicidal ratio of 90% or more (almost completely withered)) | 5 (Herbicidal ratio of 90% or more (almost completely withered)) | 0 (Herbicidal ratio of 5% or lower (almost no effect)) | 5 (Herbicidal ratio of 90% or more (almost completely withered)) | 4 (Herbicidal ratio of 70% or higher and lower than 90%) |
| CC(CC1CC(OC(=O)COc2ccccc2)=C(c2c(C)cc(-n3cc(Cl)cn3)cc2C)C1=O)=NOCC(F)(F)F (stereo not drawn) [9-012] | 5 (Herbicidal ratio of 90% or more (almost completely withered)) | 4 (Herbicidal ratio of 70% or higher and lower than 90%) | 4 (Herbicidal ratio of 70% or higher and lower than 90%) | 5 (Herbicidal ratio of 90% or more (almost completely withered)) | 5 (Herbicidal ratio of 90% or more (almost completely withered)) | 5 (Herbicidal ratio of 90% or more (almost completely withered)) | 5 (Herbicidal ratio of 90% or more (almost completely withered)) | 5 (Herbicidal ratio of 90% or more (almost completely withered)) | 5 (Herbicidal ratio of 90% or more (almost completely withered)) | 5 (Herbicidal ratio of 90% or more (almost completely withered)) | 0 (Herbicidal ratio of 5% or lower (almost no effect)) | 4 (Herbicidal ratio of 70% or higher and lower than 90%) | 0 (Herbicidal ratio of 5% or lower (almost no effect)) |
| CC#Cc1cc(C)c(C2=C(OC(=O)COc3ccccc3)CC(CC(C)=NOCC(F)(F)F)C2=O)c(C)c1 (stereo not drawn) [9-013] | 5 (Herbicidal ratio of 90% or more (almost completely withered)) | 0 (Herbicidal ratio of 5% or lower (almost no effect)) | 5 (Herbicidal ratio of 90% or more (almost completely withered)) | 5 (Herbicidal ratio of 90% or more (almost completely withered)) | 5 (Herbicidal ratio of 90% or more (almost completely withered)) | 5 (Herbicidal ratio of 90% or more (almost completely withered)) | 5 (Herbicidal ratio of 90% or more (almost completely withered)) | 5 (Herbicidal ratio of 90% or more (almost completely withered)) | 5 (Herbicidal ratio of 90% or more (almost completely withered)) | 5 (Herbicidal ratio of 90% or more (almost completely withered)) | 1 (Herbicidal ratio of 5% or higher and lower than 20%) | 5 (Herbicidal ratio of 90% or more (almost completely withered)) | 4 (Herbicidal ratio of 70% or higher and lower than 90%) |

Source: patent US11000033B2, “Ketone or oxime compound, and herbicide” (NISSAN CHEMICAL CORPORATION, priority 2014, dated 2021)
